Test: Inhibition of IL-5 in mouse Y16 cells assessed as reduction in cell proliferation after 48 hrs by WST-1 assay

| IC50 | Structure (SMILES) |
| --- | --- |
| > 30 µM | CCCNC(=O)N(CCO)Cc1coc2cccc(OCC3CCCCC3)c2c1=O |
| 17 µM | O=C(Nc1ccccc1)N(CCO)Cc1coc2cccc(OCC3CCCCC3)c2c1=O |
| 17 µM | O=C(NC1CCCCC1)N(CCO)Cc1coc2cccc(OCC3CCCCC3)c2c1=O |
| 18 µM | COc1ccc(NC(=O)N(CCO)Cc2coc3cccc(OCC4CCCCC4)c3c2=O)cc1 |
| 15 µM | O=C(NCCCc1ccccc1)N(CCO)Cc1coc2cccc(OCC3CCCCC3)c2c1=O |
| > 30 µM | CC(C)CCOc1cccc2occ(CN(CCO)C(=O)Nc3ccccc3)c(=O)c12 |
| > 30 µM | CC(C)CCOc1cccc2occ(CN(CCO)C(=O)Oc3ccccc3)c(=O)c12 |
| 25.2 µM | CCC(=O)N(CCO)Cc1coc2cccc(OCC3CCCCC3)c2c1=O |

Second part, the molecule before the results:

| Structure (SMILES) | IC50 |
| --- | --- |
| CCCC(=O)N(CCO)Cc1coc2cccc(OCC3CCCCC3)c2c1=O | 25.3 µM |
| COc1ccc(CC(=O)N(CCO)Cc2coc3cccc(OCC4CCCCC4)c3c2=O)cc1 | 17.9 µM |
| CC(C)(C)CCOc1cccc2occ(CN(CCO)C(=O)Cc3ccccc3)c(=O)c12 | > 30 µM |
| CC(C)CCOc1cccc2occ(CN(CCO)C(=O)Cc3ccccc3)c(=O)c12 | > 30 µM |
| O=c1c(-c2ccc(O[C@H]3O[C@@H](CO)[C@H](O)[C@@H](O)[C@@H]3O)cc2)coc2cc(O)cc(O)c12 | 10.6 µM |
| O=C(Cc1ccccc1)N(CCO)Cc1coc2cccc(OCC3CCCCC3)c2c1=O | 10 µM |
| CC(C)NC(=O)N(CCO)Cc1coc2cccc(OCC3CCCCC3)c2c1=O | > 30 µM |
| O=C(Nc1ccc(Cl)cc1)N(CCO)Cc1coc2cccc(OCC3CCCCC3)c2c1=O | > 30 µM |
| O=C(NCc1ccccc1)N(CCO)Cc1coc2cccc(OCC3CCCCC3)c2c1=O | 18 µM |
| CC(C)(C)CCOc1cccc2occ(CN(CCO)C(=O)Nc3ccccc3)c(=O)c12 | > 30 µM |
| CCOC(=O)N(CCO)Cc1coc2cccc(OCC3CCCCC3)c2c1=O | 20.2 µM |
| O=C(Oc1ccccc1)N(CCO)Cc1coc2cccc(OCC3CCCCC3)c2c1=O | 25 µM |
| CC(C)(C)CCOc1cccc2occ(CN(CCO)C(=O)Oc3ccccc3)c(=O)c12 | > 30 µM |
| CCNC(=O)N(CCO)Cc1coc2cccc(OCC3CCCCC3)c2c1=O | > 30 µM |

— BindingDB's records for doi:10.1016/j.bmc.2017.06.018 (Chungnam National University, 2017)
